Reference: the supplement of paper PMC10132981, “Formate overflow drives toxic folate trapping in MTHFD1 inhibited cancer cells” (Nature Metabolism, 2023)
Where “and” joins values, the source holds several entries; their conditions need not be identical. Equal entries are not always repeated. ± gives the standard deviation of the averaged measurements.

Experiments:
SW620 MTHFD2-/- = experiment: cell viability relative to vehicle (resazurin, 96 h); higher = more viable; settings: base medium: RPMI + dialysed FBS
Experimental: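 SW620 WT or MTHFD2-/- cells were treated for 96 h with a compound dilution series (log10 M) in RPMI with normal or dialysed FBS. Viability was read by resazurin and is given as % of vehicle.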

SW620 = experiment: cell viability relative to lowest-dose well (resazurin, 96 h); higher = more viable; settings: RPMI + 10% FBS
Summary of the method: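 Compounds from 10 mM DMSO stocks were dispensed as dilution series onto HCT116 (500 cells/well) or SW620 (1,000 cells/well) cells growing in 384-well plates in 50 µl RPMI, 10% FBS and a metabolite supplement. Plates were incubated 96 h at 37 °C, 5% CO2, then resazurin (10 µg ml^−1) was added and its conversion to resorufin read by fluorescence at 595 nm after 5 h. Viability is shown as percent of the lowest-dose well for independent replicate cultures.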

PA-TU-8988T = experiment: EC50 for viability (resazurin, 96 h); settings: DMEM+GlutaMAX (5% dFBS, 1% P/S); metabolite supplement: Thymidine

Cc1[nH]nc2c1C(c1cc(CO)cc(-c3ccccc3)c1)(C(C)C)C(C#N)=C(N)O2 (stereo unspecified) [SHIN1]
cell viability (SW620 MTHFD2-/-; log10 compound concentration (M): -5, supplement / serum: Hypoxanthine+Sodium Formate): 91.8 ± 12%
cell viability (SW620 MTHFD2-/-; log10 compound concentration (M): -5, supplement / serum: Hypoxanthine): 88.2 ± 9%
cell viability (SW620 MTHFD2-/-; log10 compound concentration (M): -5, supplement / serum: Sodium Formate): 83.5 ± 11%
cell viability (SW620 MTHFD2-/-; log10 compound concentration (M): -5, supplement / serum: Vehicle): 12.1 ± 2.5%
cell viability (SW620 MTHFD2-/-; log10 compound concentration (M): -5.47712, supplement / serum: Hypoxanthine+Sodium Formate): 109 ± 5.6%
cell viability (SW620 MTHFD2-/-; log10 compound concentration (M): -5.47712, supplement / serum: Hypoxanthine): 102 ± 8.9%
cell viability (SW620 MTHFD2-/-; log10 compound concentration (M): -5.47712, supplement / serum: Sodium Formate): 104 ± 7%
cell viability (SW620 MTHFD2-/-; log10 compound concentration (M): -5.47712, supplement / serum: Vehicle): 13.6 ± 1%
cell viability (SW620 MTHFD2-/-; log10 compound concentration (M): -5.95424, supplement / serum: Hypoxanthine+Sodium Formate): 107 ± 6.6%
cell viability (SW620 MTHFD2-/-; log10 compound concentration (M): -5.95424, supplement / serum: Hypoxanthine): 105 ± 8.2%
cell viability (SW620 MTHFD2-/-; log10 compound concentration (M): -5.95424, supplement / serum: Sodium Formate): 99.9 ± 4.8%
cell viability (SW620 MTHFD2-/-; log10 compound concentration (M): -5.95424, supplement / serum: Vehicle): 13.9 ± 1.6%
cell viability (SW620 MTHFD2-/-; log10 compound concentration (M): -6.43136, supplement / serum: Hypoxanthine+Sodium Formate): 109 ± 4%
cell viability (SW620 MTHFD2-/-; log10 compound concentration (M): -6.43136, supplement / serum: Hypoxanthine): 103 ± 1.6%
cell viability (SW620 MTHFD2-/-; log10 compound concentration (M): -6.43136, supplement / serum: Sodium Formate): 102 ± 4.2%
cell viability (SW620 MTHFD2-/-; log10 compound concentration (M): -6.43136, supplement / serum: Vehicle): 14.8 ± 1.4%
cell viability (SW620 MTHFD2-/-; log10 compound concentration (M): -6.90849, supplement / serum: Hypoxanthine+Sodium Formate): 104 ± 4.4%
cell viability (SW620 MTHFD2-/-; log10 compound concentration (M): -6.90849, supplement / serum: Hypoxanthine): 101 ± 5.4%
cell viability (SW620 MTHFD2-/-; log10 compound concentration (M): -6.90849, supplement / serum: Sodium Formate): 108 ± 3.8%
cell viability (SW620 MTHFD2-/-; log10 compound concentration (M): -6.90849, supplement / serum: Vehicle): 16.4 ± 1.8%
cell viability (SW620 MTHFD2-/-; log10 compound concentration (M): -7.38561, supplement / serum: Hypoxanthine+Sodium Formate): 86.8 ± 6.8%
cell viability (SW620 MTHFD2-/-; log10 compound concentration (M): -7.38561, supplement / serum: Hypoxanthine): 88.3 ± 9.3%
cell viability (SW620 MTHFD2-/-; log10 compound concentration (M): -7.38561, supplement / serum: Sodium Formate): 85.4 ± 4.3%
cell viability (SW620 MTHFD2-/-; log10 compound concentration (M): -7.38561, supplement / serum: Vehicle): 14 ± 0.95%
cell viability (SW620 MTHFD2-/-; log10 compound concentration (M): -7.86273, supplement / serum: Hypoxanthine+Sodium Formate): 99.9 ± 8.4%
cell viability (SW620 MTHFD2-/-; log10 compound concentration (M): -7.86273, supplement / serum: Hypoxanthine): 92.2 ± 10%
cell viability (SW620 MTHFD2-/-; log10 compound concentration (M): -7.86273, supplement / serum: Sodium Formate): 90.9 ± 5.5%
cell viability (SW620 MTHFD2-/-; log10 compound concentration (M): -7.86273, supplement / serum: Vehicle): 27.1 ± 3%
cell viability (SW620 MTHFD2-/-; log10 compound concentration (M): -8.33985, supplement / serum: Hypoxanthine+Sodium Formate): 102 ± 2.4%
cell viability (SW620 MTHFD2-/-; log10 compound concentration (M): -8.33985, supplement / serum: Hypoxanthine): 101 ± 5.1%
cell viability (SW620 MTHFD2-/-; log10 compound concentration (M): -8.33985, supplement / serum: Sodium Formate): 99.8 ± 4.9%
cell viability (SW620 MTHFD2-/-; log10 compound concentration (M): -8.33985, supplement / serum: Vehicle): 47.3 ± 3.7%
cell viability (SW620 MTHFD2-/-; log10 compound concentration (M): -8.81697, supplement / serum: Hypoxanthine+Sodium Formate): 103 ± 7.2%
cell viability (SW620 MTHFD2-/-; log10 compound concentration (M): -8.81697, supplement / serum: Hypoxanthine): 101 ± 8%
cell viability (SW620 MTHFD2-/-; log10 compound concentration (M): -8.81697, supplement / serum: Sodium Formate): 99 ± 6.2%
cell viability (SW620 MTHFD2-/-; log10 compound concentration (M): -8.81697, supplement / serum: Vehicle): 65.1 ± 3.5%
cell viability (SW620 MTHFD2-/-; log10 compound concentration (M): -9.29409, supplement / serum: Hypoxanthine+Sodium Formate): 99.9 ± 2.3%
cell viability (SW620 MTHFD2-/-; log10 compound concentration (M): -9.29409, supplement / serum: Hypoxanthine): 96.8 ± 6%
cell viability (SW620 MTHFD2-/-; log10 compound concentration (M): -9.29409, supplement / serum: Sodium Formate): 97.1 ± 4.1%
cell viability (SW620 MTHFD2-/-; log10 compound concentration (M): -9.29409, supplement / serum: Vehicle): 85.7 ± 3.4%
cell viability (SW620 MTHFD2-/-; log10 compound concentration (M): -9.77121, supplement / serum: Hypoxanthine+Sodium Formate): 105 ± 8%
cell viability (SW620 MTHFD2-/-; log10 compound concentration (M): -9.77121, supplement / serum: Hypoxanthine): 102 ± 6%
cell viability (SW620 MTHFD2-/-; log10 compound concentration (M): -9.77121, supplement / serum: Sodium Formate): 98.8 ± 5.4%
cell viability (SW620 MTHFD2-/-; log10 compound concentration (M): -9.77121, supplement / serum: Vehicle): 92.1 ± 5.2%

O=c1[nH]cc(F)c(=O)[nH]1 [5-fluorouracil]
cell viability (SW620; 0.01 µM, metabolite supplement: 1uM folinic acid): 102 ± 1.5%
cell viability (SW620; 0.01 µM, metabolite supplement: 50uM thymidine + 1uM folinic acid): 105 ± 11%
cell viability (SW620; 0.01 µM, metabolite supplement: 50uM thymidine): 106 ± 5.3%
cell viability (SW620; 0.01 µM, metabolite supplement: vehicle): 99.5 ± 2.1%
cell viability (SW620; 0.0278 µM, metabolite supplement: 1uM folinic acid): 100.2 ± 1%
cell viability (SW620; 0.0278 µM, metabolite supplement: 50uM thymidine + 1uM folinic acid): 106 ± 11%
cell viability (SW620; 0.0278 µM, metabolite supplement: 50uM thymidine): 99.3 ± 8.8%
cell viability (SW620; 0.0278 µM, metabolite supplement: vehicle): 99.5 ± 4.3%
cell viability (SW620; 0.0774 µM, metabolite supplement: 1uM folinic acid): 100 ± 1.6%
cell viability (SW620; 0.0774 µM, metabolite supplement: 50uM thymidine + 1uM folinic acid): 103 ± 10%
cell viability (SW620; 0.0774 µM, metabolite supplement: 50uM thymidine): 97.1 ± 7.4%
cell viability (SW620; 0.0774 µM, metabolite supplement: vehicle): 101 ± 2.7%
cell viability (SW620; 0.215 µM, metabolite supplement: 1uM folinic acid): 99.7 ± 3.2%
cell viability (SW620; 0.215 µM, metabolite supplement: 50uM thymidine + 1uM folinic acid): 103 ± 10%
cell viability (SW620; 0.215 µM, metabolite supplement: 50uM thymidine): 96.7 ± 11%
cell viability (SW620; 0.215 µM, metabolite supplement: vehicle): 97.4 ± 1.6%
cell viability (SW620; 0.599 µM, metabolite supplement: 1uM folinic acid): 99 ± 3.9%
cell viability (SW620; 0.599 µM, metabolite supplement: 50uM thymidine + 1uM folinic acid): 100 ± 9%
cell viability (SW620; 0.599 µM, metabolite supplement: 50uM thymidine + 250uM folic acid): 97.8 ± 1.9%
cell viability (SW620; 0.599 µM, metabolite supplement: 50uM thymidine): 94.2 ± 11%
cell viability (SW620; 0.599 µM, metabolite supplement: vehicle): 95.9% and 98.1%
cell viability (SW620; 1.67 µM, metabolite supplement: 1uM folinic acid): 83.6 ± 3.9%
cell viability (SW620; 1.67 µM, metabolite supplement: 50uM thymidine + 1uM folinic acid): 83.2 ± 9.2%
cell viability (SW620; 1.67 µM, metabolite supplement: 50uM thymidine + 250uM folic acid): 79.1 ± 5.9%
cell viability (SW620; 1.67 µM, metabolite supplement: 50uM thymidine): 74.8 ± 6.8%
cell viability (SW620; 1.67 µM, metabolite supplement: 250uM folic acid): 83.4 ± 5.1%
cell viability (SW620; 1.67 µM, metabolite supplement: vehicle): 80.3 ± 1.1%
cell viability (SW620; 4.64 µM, metabolite supplement: 1uM folinic acid): 48.8 ± 6.7%
cell viability (SW620; 4.64 µM, metabolite supplement: 50uM thymidine + 1uM folinic acid): 51.5 ± 7%
cell viability (SW620; 4.64 µM, metabolite supplement: 50uM thymidine + 250uM folic acid): 52.8 ± 2%
cell viability (SW620; 4.64 µM, metabolite supplement: 50uM thymidine): 49.1 ± 8.9%
cell viability (SW620; 4.64 µM, metabolite supplement: 250uM folic acid): 51.4 ± 4.3%
cell viability (SW620; 4.64 µM, metabolite supplement: vehicle): 53 ± 6.4%
cell viability (SW620; 12.9 µM, metabolite supplement: 1uM folinic acid): 26.2 ± 4.8%
cell viability (SW620; 12.9 µM, metabolite supplement: 50uM thymidine + 1uM folinic acid): 26.3 ± 6.1%
cell viability (SW620; 12.9 µM, metabolite supplement: 50uM thymidine + 250uM folic acid): 26.3 ± 2.8%
cell viability (SW620; 12.9 µM, metabolite supplement: 50uM thymidine): 26.6% and 22.5%
cell viability (SW620; 12.9 µM, metabolite supplement: 250uM folic acid): 27.3 ± 2.3%
cell viability (SW620; 12.9 µM, metabolite supplement: vehicle): 29.5% and 26.5%
cell viability (SW620; 35.9 µM, metabolite supplement: 1uM folinic acid): 12 ± 2.2%
cell viability (SW620; 35.9 µM, metabolite supplement: 50uM thymidine + 1uM folinic acid): 11.6 ± 2.7%
cell viability (SW620; 35.9 µM, metabolite supplement: 50uM thymidine + 250uM folic acid): 11.7 ± 0.68%
cell viability (SW620; 35.9 µM, metabolite supplement: 50uM thymidine): 10.4 ± 2.5%
cell viability (SW620; 35.9 µM, metabolite supplement: 250uM folic acid): 11.9 ± 0.55%
cell viability (SW620; 35.9 µM, metabolite supplement: vehicle): 11.6 ± 2.5%
cell viability (SW620; 0.0001 M, metabolite supplement: 1uM folinic acid): 6.83 ± 1.4%
cell viability (SW620; 0.0001 M, metabolite supplement: 50uM thymidine + 1uM folinic acid): 7.17 ± 1.8%
cell viability (SW620; 0.0001 M, metabolite supplement: 50uM thymidine + 250uM folic acid): 6.77 ± 0.21%
cell viability (SW620; 0.0001 M, metabolite supplement: 50uM thymidine): 6.07% and 5.27%
cell viability (SW620; 0.0001 M, metabolite supplement: 250uM folic acid): 6.37 ± 0.25%
cell viability (SW620; 0.0001 M, metabolite supplement: vehicle): 6.87% and 5.97%

Nc1nc(N)c(CC(=O)Nc2cnc(C(=O)N[C@@H](CCC(=O)O)C(=O)O)c(F)c2)c(=O)[nH]1 [TH9619]
EC50 for viability (PA-TU-8988T): 29.5 nM
